Measured values taken from patent US20100028447A1, “Intranasal, Buccal, And Sublingual Administration Of Metanicotine Analogs” (TARGACEPT, INC., priority 2007, published 2010).

Key:
[1] = system: cultured human respiratory epithelium; assay: in vitro
From the text: (§1) An in vitro model of MatTek EpiAir® tissue was used for the permeability assessment of the test articles and control compounds. The EpiAir® culture consists of cells that have been cultured to form a pseudo-stratified, highly differentiated model closely resembling the epithelial tissue of the human respiratory tract. The histological cross-sections of the cultured tissue reveal a pseudo-stratified mucociliary phenotype.
(§2) EpiAir® tissues plated in 12 well plates were pre-equilibrated for the assay by culturing them for 24 hours at 37° C. with 5% CO2 in a humidified incubator. On the day of the assay, the cultures were washed two times with Dulbeccos' Phosphate Buffered Saline (DPBS buffer) at pH 7.4, and then dosed with donor and receiver buffer applied to the apical and basolateral surfaces of the culture, respectively. The receiver buffer consisted of DPBS, at pH 7.4. The donor solution consisted of DPBS buffer containing the appropriate compounds as specified in Table 1. All treatments were performed in triplicate. The receiver buffer was sampled at 15, 30, 60, and 120 minutes, and the donor buffer was sampled at 120 minutes.
(§3) The Lucifer Yellow concentration in the receiver samples was measured using a FluoStar fluorescence plate reader (BMG Laboratories, Durham, N.C.).
(§4) The apparent permeability coefficient, Papp, was calculated as follows: […]
(§5) where: dCr/dt is the slope of the cumulative concentration in the receiver compartment versus time; Vr is the volume of the receiver compartment; A is the surface area of epithelium available for permeation; and Co is the dosing solution concentration.

[2] = Permeation across cultured human respiratory epithelium (EpiAir tissue), apical-to-basolateral Papp; settings: human, pH 7.4, Papp
From the text: as §1, §2, §3, §4, §5

[3] = In situ brain perfusion, single time-point method
Protocol: Animals used in this study were Sprague-Dawley rats (approximate weight 250-300 grams), obtained from Hilltop Lab Animals, Scottdale, Pa. Upon arrival, the rats were assigned randomly to treatment groups and acclimated for at least 24 hours. The animals were housed two per cage and identified by cage labels. A single room was used for this study. The animals were supplied with water and a commercial rodent diet ad libitum. On the day of the experiment, each rat was anesthetized intraperitoneally with Ketamine HCl/Xylazine HCl solution prior to being implanted with a cannula into the left carotid artery. Branch arteries were […], and the cardiac supply was cut off prior to brain perfusion.
Perfusion was performed using the single time-point method. […] Following 30 seconds of perfusion, the pump was stopped, and the brain was removed from the skull immediately. The brain was cut longitudinally in […]. Each left cerebral hemisphere was placed into a chilled tube, frozen on dry ice, and stored frozen at −60° C. to −80° C. until analyzed. […] Test articles were perfused at concentrations of 50 μM. The outline of the experimental treatments and the target and measured concentrations of the test articles and control compounds in the perfusate are presented in Table 3.
The left brain hemisphere from each rat was thawed and weighed. Methanol (20% aqueous) was added to each left brain hemisphere at approximately 4 mL per 1 g of brain tissue, and the mixture was homogenized using sonication with a VirSonic Ultrasonic Cell Disruptor 100 (VirTis). The test articles and two reference compounds were analyzed in the resulting homogenate by using LC/MS/MS.
The unidirectional brain transfer constants Kin (mL/g/min) were determined for the test articles and the high permeability reference, antipyrine, using the following equation for the single-point perfusion assay: […]
where: Cbr/Cpf is the apparent brain distribution volume (mL/g of brain tissue); Cbr is the concentration of drug in the brain tissue (pmol of drug per g of brain tissue); Cpf is the drug concentration in the perfusion fluid (pmol/mL of perfusate); and t is the net perfusion time (minutes).
Graphic representation and statistical analyses of the data were performed using GraphPad Prism software.

[4] = Treatment 3: MAO substrate Phenylethylamine assayed with controls, Average ± STD
[5] = Treatment 3: MAO substrate Phenylethylamine assayed with controls, Rep 1
[6] = Treatment 3: MAO substrate Phenylethylamine assayed with controls, Rep 2
[7] = Treatment 3: MAO substrate Phenylethylamine assayed with controls, Rep 3
[8] = Treatment 4: Phenylethylamine assayed with controls + MAO inhibitor Pargyline, Average ± STD
[9] = Treatment 4: Phenylethylamine assayed with controls + MAO inhibitor Pargyline, Rep 1
[10] = Treatment 4: Phenylethylamine assayed with controls + MAO inhibitor Pargyline, Rep 2
[11] = Treatment 4: Phenylethylamine assayed with controls + MAO inhibitor Pargyline, Rep 3
[12] = Table 4 Treatment 1: Compound B perfused with references, Average ± STD
[13] = Table 4 Treatment 1: Compound B perfused with references, Rat 1
[14] = Table 4 Treatment 1: Compound B perfused with references, Rat 2
[15] = Table 4 Treatment 1: Compound B perfused with references, Rat 3
[16] = Table 4 Treatment 2: Compound B perfused with references + MAO inhibitor Pargyline, Average ± STD
[17] = Table 4 Treatment 2: Compound B perfused with references + MAO inhibitor Pargyline, Rat 1
[18] = Table 4 Treatment 2: Compound B perfused with references + MAO inhibitor Pargyline, Rat 2
[19] = Table 4 Treatment 2: Compound B perfused with references + MAO inhibitor Pargyline, Rat 3
[20] = Table 5 Treatment 1: Compound A perfused with references, Average ± STD
[21] = Table 5 Treatment 1: Compound A perfused with references, Rat 1
[22] = Table 5 Treatment 1: Compound A perfused with references, Rat 2
[23] = Table 5 Treatment 1: Compound A perfused with references, Rat 3
[24] = Table 5 Treatment 2: Compound A perfused with references + CYP2D6 inhibitor Quinidine, Average ± STD
[25] = Table 5 Treatment 2: Compound A perfused with references + CYP2D6 inhibitor Quinidine, Rat 1
[26] = Table 5 Treatment 2: Compound A perfused with references + CYP2D6 inhibitor Quinidine, Rat 2
[27] = Table 5 Treatment 2: Compound A perfused with references + CYP2D6 inhibitor Quinidine, Rat 3

NCCc1ccccc1 [Phenylethylamine]
Permeation (Papp) in the presence of the MAO inhibitor Pargyline compared to alone [1]: significant increased | Papp at 120 min [2, 4]: 18.94 ± 0.1 ×10⁻⁶ cm/s | Papp at 120 min [2, 5]: 18.8 ×10⁻⁶ cm/s | Papp at 120 min [2, 6]: 18.9 ×10⁻⁶ cm/s | Papp at 120 min [2, 7]: 19 ×10⁻⁶ cm/s | Papp at 120 min [2, 8]: 35.2 ± 0.98 ×10⁻⁶ cm/s | Papp at 120 min [2, 9]: 34.5 ×10⁻⁶ cm/s | Papp at 120 min [2, 10]: 36.3 ×10⁻⁶ cm/s | Papp at 120 min [2, 11]: 34.7 ×10⁻⁶ cm/s

Cc1cc(=O)n(-c2ccccc2)n1C [Antipyrine, reference compound]
Brain Concentration (corrected for drug retained in vascular volume) [3, 12]: 1083.1 ± 141.4 pmol/g | Kin [3, 12]: 0.342 ± 0.045 mL/g/min | Brain Concentration (corrected for drug retained in vascular volume) [3, 13]: 1123.1 pmol/g | Kin [3, 13]: 0.355 mL/g/min | Brain Concentration (corrected for drug retained in vascular volume) [3, 14]: 1200.2 pmol/g | Kin [3, 14]: 0.379 mL/g/min | Brain Concentration (corrected for drug retained in vascular volume) [3, 15]: 926.0 pmol/g | Kin [3, 15]: 0.292 mL/g/min | Brain Concentration (corrected for drug retained in vascular volume) [3, 16]: 888.5 ± 47.9 pmol/g | Kin [3, 16]: 0.300 ± 0.016 mL/g/min | Brain Concentration (corrected for drug retained in vascular volume) [3, 17]: 833.1 pmol/g | Kin [3, 17]: 0.282 mL/g/min | Brain Concentration (corrected for drug retained in vascular volume) [3, 18]: 914.3 pmol/g | Kin [3, 18]: 0.309 mL/g/min | Brain Concentration (corrected for drug retained in vascular volume) [3, 19]: 918.0 pmol/g | Kin [3, 19]: 0.310 mL/g/min | Brain Concentration (corrected for drug retained in vascular volume) [3, 20]: 1157.1 ± 239.3 pmol/g | Kin [3, 20]: 0.376 ± 0.078 mL/g/min | Brain Concentration (corrected for drug retained in vascular volume) [3, 21]: 1426.6 pmol/g | Kin [3, 21]: 0.463 mL/g/min | Brain Concentration (corrected for drug retained in vascular volume) [3, 22]: 1074.9 pmol/g | Kin [3, 22]: 0.349 mL/g/min | Brain Concentration (corrected for drug retained in vascular volume) [3, 23]: 969.7 pmol/g | Kin [3, 23]: 0.315 mL/g/min | Brain Concentration (corrected for drug retained in vascular volume) [3, 24]: 1124.7 ± 135.5 pmol/g | Kin [3, 24]: 0.386 ± 0.047 mL/g/min | Brain Concentration (corrected for drug retained in vascular volume) [3, 25]: 977.7 pmol/g | Kin [3, 25]: 0.336 mL/g/min | Brain Concentration (corrected for drug retained in vascular volume) [3, 26]: 1244.5 pmol/g | Kin [3, 26]: 0.427 mL/g/min | Brain Concentration (corrected for drug retained in vascular volume) [3, 27]: 1151.8 pmol/g | Kin [3, 27]: 0.395 mL/g/min

Lucifer Yellow
Papp ([1]; Treatment 1: Compound B assayed with controls, Average ± STD): 14.40 ± 0.37 ×10^−6 cm/s | Papp ([1]; Treatment 1: Compound B assayed with controls, Rep 1): 1.481e-05 cm/s | Papp ([1]; Treatment 1: Compound B assayed with controls, Rep 2): 1.411e-05 cm/s | Papp ([1]; Treatment 1: Compound B assayed with controls, Rep 3): 1.426e-05 cm/s | Papp ([1]; Treatment 2: Compound B assayed with controls + MAO inhibitor Pargyline, Average ± STD): 15.10 ± 0.11 ×10^−6 cm/s | Papp ([1]; Treatment 2: Compound B assayed with controls + MAO inhibitor Pargyline, Rep 1): 1.509e-05 cm/s | Papp ([1]; Treatment 2: Compound B assayed with controls + MAO inhibitor Pargyline, Rep 2): 1.5e-05 cm/s | Papp ([1]; Treatment 2: Compound B assayed with controls + MAO inhibitor Pargyline, Rep 3): 1.521e-05 cm/s | Papp [1, 4]: 14.82 ± 0.88 ×10^−6 cm/s | Papp [1, 5]: 1.561e-05 cm/s | Papp [1, 6]: 1.388e-05 cm/s | Papp [1, 7]: 1.499e-05 cm/s | Papp [1, 8]: 13.76 ± 0.46 ×10^−6 cm/s | Papp [1, 9]: 1.327e-05 cm/s | Papp [1, 10]: 1.382e-05 cm/s | Papp [1, 11]: 1.42e-05 cm/s | Papp ([1]; Treatment 5: Compound A assayed with controls, Average ± STD): 14.56 ± 1.33 ×10^−6 cm/s | Papp ([1]; Treatment 5: Compound A assayed with controls, Rep 1): 1.491e-05 cm/s | Papp ([1]; Treatment 5: Compound A assayed with controls, Rep 2): 1.309e-05 cm/s | Papp ([1]; Treatment 5: Compound A assayed with controls, Rep 3): 1.568e-05 cm/s | Papp ([1]; Treatment 7: CYP2D6 substrate Bufuralol assayed with controls, Average ± STD): 13.88 ± 0.56 ×10^−6 cm/s | Papp ([1]; Treatment 7: CYP2D6 substrate Bufuralol assayed with controls, Rep 1): 1.355e-05 cm/s | Papp ([1]; Treatment 7: CYP2D6 substrate Bufuralol assayed with controls, Rep 2): 1.357e-05 cm/s | Papp ([1]; Treatment 7: CYP2D6 substrate Bufuralol assayed with controls, Rep 3): 1.452e-05 cm/s
